The text below walks through data of ChEMBL document CHEMBL2424568, “Phenylpyrazolo[1,5-a]quinazolin-5(4H)-one: a suitable scaffold for the development of noncamptothecin topoisomerase I (Top1) inhibitors” (J Med Chem, 2013).

Each structure is given as a SMILES string. The source made the active and inactive calls. No cut-off for these calls is given here.

Assay [1] has as its target T1, DNA topoisomerase 1 (Homo sapiens) (UniProt P11387).
T1 sequence (whole entry): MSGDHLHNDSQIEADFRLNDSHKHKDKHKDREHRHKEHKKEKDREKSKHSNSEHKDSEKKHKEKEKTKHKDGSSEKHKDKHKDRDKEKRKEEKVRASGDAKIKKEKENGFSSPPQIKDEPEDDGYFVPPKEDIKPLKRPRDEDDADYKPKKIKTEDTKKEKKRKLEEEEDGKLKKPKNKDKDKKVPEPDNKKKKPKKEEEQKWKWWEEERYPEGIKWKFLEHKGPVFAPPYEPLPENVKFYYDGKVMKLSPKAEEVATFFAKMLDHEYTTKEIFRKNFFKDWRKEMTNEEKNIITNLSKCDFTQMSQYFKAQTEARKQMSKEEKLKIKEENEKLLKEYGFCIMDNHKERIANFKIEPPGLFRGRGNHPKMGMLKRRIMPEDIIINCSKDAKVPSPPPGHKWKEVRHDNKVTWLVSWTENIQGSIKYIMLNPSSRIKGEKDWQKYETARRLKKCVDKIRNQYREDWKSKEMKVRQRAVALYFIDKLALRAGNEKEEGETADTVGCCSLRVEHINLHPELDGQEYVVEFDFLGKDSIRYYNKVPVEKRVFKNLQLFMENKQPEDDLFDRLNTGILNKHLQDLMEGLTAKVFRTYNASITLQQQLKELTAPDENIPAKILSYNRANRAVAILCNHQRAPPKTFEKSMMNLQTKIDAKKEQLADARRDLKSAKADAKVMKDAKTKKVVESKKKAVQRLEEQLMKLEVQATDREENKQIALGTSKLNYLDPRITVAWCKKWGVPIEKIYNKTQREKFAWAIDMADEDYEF
As to the kind of experiment: Inhibition of recombinant DNA topoisomerase 1 (unknown origin) assessed as inhibition of topoisomerase 1-mediated DNA cleavage at 1 to 100 uM after 20 mins by SDS-PAGE analysis relative to control.

For assay [2], the target named is T1, DNA topoisomerase 1 (Homo sapiens). The assay is described as follows: Inhibition of recombinant DNA topoisomerase 1 (unknown origin) assessed as inhibition of topoisomerase 1-mediated DNA cleavage at 1 uM after 20 mins by SDS-PAGE analysis.

`CCN(CC)CCNc1nc2c(-c3ccc(OC)cc3)cnn2c2ccccc12`: the “Top1 cleavage inhibition (active/inactive)” value in assay [1] was “Active”. On the same count and under the same terms, the same measure for `CN(C)CCCOc1nc2c(-c3ccccc3)cnn2c2ccccc12`: “Active”. The same measure, in the same setting: for `CN(C)CCOc1nc2c(-c3ccc(Cl)cc3)cnn2c2ccccc12` the value was “Active”; for `CN(C)CCCNc1nc2c(-c3ccc(Cl)cc3)cnn2c2ccccc12`, “Active”; for `O=c1c2ccccc2n2nc(-c3ccccc3)cc2n1CCCc1ncc[nH]1`, “inactive”.

For the molecule `FC(F)(F)c1ccc(-c2cnn3c2nc(NCCCc2ncc[nH]2)c2ccccc23)cc1`, the “Top1 cleavage inhibition (active/inactive)” value in assay [1] is “inactive”. In the case of `CCN(CC)CCOc1nc2c(-c3ccc(Cl)cc3)cnn2c2ccccc12`, the “Top1 cleavage inhibition (active/inactive)” value in assay [1] is “Active”. Further, the “Top1 DNA cleavage inhibition (active/not active)” value in assay [2] was “inactive”. In the case of `COc1ccc(-c2cnn3c2nc(NCCCN(C)C)c2ccccc23)cc1`, the “Top1 cleavage inhibition (active/inactive)” value in assay [1] is “Active”.

Take `c1ccc(-c2cc3nc(NCCCc4ncc[nH]4)c4ccccc4n3n2)cc1`: the “Top1 cleavage inhibition (active/inactive)” value in assay [1] is “inactive”. The same measure, in the same setting: the same measure for `CN(C)CCCOc1nc2cc(-c3ccccc3)nn2c2ccccc12`: “inactive”. Consider `CCN(CC)CCNc1nc2cc(-c3ccccc3)nn2c2ccccc12`, for which, in assay [1], the “Top1 cleavage inhibition (active/inactive)” value is “inactive”. Same read-out and setting: the same measure for `COc1ccc(-c2cnn3c2nc(NCCN(C)C)c2ccccc23)cc1`: “Active”; for `CCN(CC)CCOc1nc2c(-c3ccc(OC)cc3)cnn2c2ccccc12`: “Active”; for `CN(C)CCOc1nc2c(-c3ccccc3)cnn2c2ccccc12`: “Active”. Still for that read-out and setting: the same measure for `CN(C)CCn1c(=O)c2ccccc2n2nc(-c3ccccc3)cc12`: “Active”; for `CCN(CC)CCNc1nc2c(-c3ccccc3)cnn2c2ccccc12`: “Active”.

Take `CCN(CC)CCOc1nc2c(-c3ccccc3)cnn2c2ccccc12`: the “Top1 cleavage inhibition (active/inactive)” value in assay [1] was “Active”. Same read-out and setting: for `CCN(CC)CCOc1nc2cc(-c3ccccc3)nn2c2ccccc12` the value was “Active”; for `c1ccc(-c2cnn3c2nc(NCCCc2ncc[nH]2)c2ccccc23)cc1`, “Active”. Regarding `CN(C)CCCOc1nc2c(-c3ccc(Cl)cc3)cnn2c2ccccc12`, the “Top1 cleavage inhibition (active/inactive)” value in assay [1] was “Active”. `CN(C)CCCn1c(=O)c2ccccc2n2nc(-c3ccccc3)cc12`: the “Top1 cleavage inhibition (active/inactive)” value in assay [1] was “inactive”. Moreover, the “Top1 DNA cleavage inhibition (active/not active)” value in assay [2] is “inactive”. For `COc1ccc(-c2cnn3c2nc(NCCCc2ncc[nH]2)c2ccccc23)cc1`, in assay [1], the “Top1 cleavage inhibition (active/inactive)” value was “inactive”.

As for `CN(C)CCCNc1nc2c(-c3ccc(C(F)(F)F)cc3)cnn2c2ccccc12`, the “Top1 cleavage inhibition (active/inactive)” value in assay [1] is “Active”. Still for that read-out and setting: for `CCN(CC)CCOc1nc2c(-c3ccc(C(F)(F)F)cc3)cnn2c2ccccc12` the value was “inactive”; for `CN(C)CCOc1nc2c(-c3ccc(C(F)(F)F)cc3)cnn2c2ccccc12`, “Active”. Turning to `Clc1ccc(-c2cnn3c2nc(NCCCc2ncc[nH]2)c2ccccc23)cc1`, the “Top1 cleavage inhibition (active/inactive)” value in assay [1] was “inactive”. Further, the “Top1 DNA cleavage inhibition (active/not active)” value in assay [2] is “inactive”. For `CCN(CC)CCNc1nc2c(-c3ccc(Cl)cc3)cnn2c2ccccc12`, in assay [1], the “Top1 cleavage inhibition (active/inactive)” value was “Active”. Same read-out and setting: for `CCN(CC)CCNc1nc2c(-c3ccc(C(F)(F)F)cc3)cnn2c2ccccc12` the value was “Active”; for `COc1ccc(-c2cnn3c2nc(OCCN(C)C)c2ccccc23)cc1`, “Active”. Still for that read-out and setting: the same measure for `COc1ccc(-c2cnn3c2nc(OCCCN(C)C)c2ccccc23)cc1`: “Active”. Turning to `CN(C)CCNc1nc2c(-c3ccc(Cl)cc3)cnn2c2ccccc12`, the “Top1 cleavage inhibition (active/inactive)” value in assay [1] is “Active”. Same read-out and setting: the same measure for `CN(C)CCNc1nc2c(-c3ccc(C(F)(F)F)cc3)cnn2c2ccccc12`: “Active”.

As for `CN(C)CCCOc1nc2c(-c3ccc(C(F)(F)F)cc3)cnn2c2ccccc12`, the “Top1 cleavage inhibition (active/inactive)” value in assay [1] is “inactive”. Besides, the “Top1 DNA cleavage inhibition (active/not active)” value in assay [2] was “inactive”. On to `CN(C)CCOc1nc2cc(-c3ccccc3)nn2c2ccccc12`, for which the “Top1 cleavage inhibition (active/inactive)” value in assay [1] is “Active”. With `COc1cc2c3c(n(CCCNCCO)c(=O)c2cc1OC)-c1cc2c(cc1C3=O)OCO2`, the “Top1 DNA cleavage inhibition (active/not active)” value in assay [2] is “Active”.
